{"source": "paper PMC9602792", "about": "“Preclinical evaluation of the epithelial sodium channel inhibitor AZD5634 and implications on human translation” (American Journal of Physiology - Lung Cellular and …, 2022)", "target": "T1, rat ENaC (Rattus norvegicus, UniProt P37089+P37090+P37091)", "T1 construct": "from tissue; host or cells: kidney distal tubule of anesthetized female Wistar rats, in vivo", "T1 sequence (P37089 1-698)": "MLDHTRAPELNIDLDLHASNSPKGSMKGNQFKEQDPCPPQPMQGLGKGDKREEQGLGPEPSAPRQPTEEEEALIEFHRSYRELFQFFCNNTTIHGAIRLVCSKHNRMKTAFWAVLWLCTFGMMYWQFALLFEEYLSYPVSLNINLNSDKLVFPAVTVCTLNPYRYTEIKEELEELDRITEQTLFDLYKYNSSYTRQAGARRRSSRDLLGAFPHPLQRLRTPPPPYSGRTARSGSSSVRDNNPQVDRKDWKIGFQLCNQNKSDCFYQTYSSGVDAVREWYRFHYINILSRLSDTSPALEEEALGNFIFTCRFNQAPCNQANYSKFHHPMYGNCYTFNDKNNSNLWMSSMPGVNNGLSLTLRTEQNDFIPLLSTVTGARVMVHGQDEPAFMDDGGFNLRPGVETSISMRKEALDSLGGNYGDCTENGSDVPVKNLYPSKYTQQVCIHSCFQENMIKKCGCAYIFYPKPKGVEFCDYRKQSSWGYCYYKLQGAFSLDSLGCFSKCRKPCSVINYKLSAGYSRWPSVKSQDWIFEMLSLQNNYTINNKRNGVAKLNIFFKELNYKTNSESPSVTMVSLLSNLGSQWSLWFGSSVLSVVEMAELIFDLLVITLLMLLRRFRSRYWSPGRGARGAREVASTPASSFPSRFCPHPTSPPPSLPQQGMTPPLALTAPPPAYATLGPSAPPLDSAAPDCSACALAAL", "T1 sequence (P37090 1-638)": "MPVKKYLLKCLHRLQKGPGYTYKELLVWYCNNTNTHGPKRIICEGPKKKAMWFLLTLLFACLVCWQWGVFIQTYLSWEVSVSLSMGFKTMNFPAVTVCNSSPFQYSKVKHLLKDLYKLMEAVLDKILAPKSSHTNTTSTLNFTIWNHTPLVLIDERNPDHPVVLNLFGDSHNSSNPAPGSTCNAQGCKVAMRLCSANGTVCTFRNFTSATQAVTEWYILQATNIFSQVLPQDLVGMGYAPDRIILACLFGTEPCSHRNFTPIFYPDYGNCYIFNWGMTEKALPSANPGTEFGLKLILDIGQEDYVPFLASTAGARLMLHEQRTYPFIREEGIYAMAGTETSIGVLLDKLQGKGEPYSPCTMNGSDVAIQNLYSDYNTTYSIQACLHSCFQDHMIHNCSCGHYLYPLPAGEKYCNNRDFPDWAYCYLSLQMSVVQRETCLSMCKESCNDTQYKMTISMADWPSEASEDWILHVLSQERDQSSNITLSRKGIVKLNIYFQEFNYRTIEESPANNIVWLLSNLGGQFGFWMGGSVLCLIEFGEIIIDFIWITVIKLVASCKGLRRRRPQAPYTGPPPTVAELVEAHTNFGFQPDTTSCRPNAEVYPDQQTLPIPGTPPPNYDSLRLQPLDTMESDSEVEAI", "T1 sequence (P37091 1-650)": "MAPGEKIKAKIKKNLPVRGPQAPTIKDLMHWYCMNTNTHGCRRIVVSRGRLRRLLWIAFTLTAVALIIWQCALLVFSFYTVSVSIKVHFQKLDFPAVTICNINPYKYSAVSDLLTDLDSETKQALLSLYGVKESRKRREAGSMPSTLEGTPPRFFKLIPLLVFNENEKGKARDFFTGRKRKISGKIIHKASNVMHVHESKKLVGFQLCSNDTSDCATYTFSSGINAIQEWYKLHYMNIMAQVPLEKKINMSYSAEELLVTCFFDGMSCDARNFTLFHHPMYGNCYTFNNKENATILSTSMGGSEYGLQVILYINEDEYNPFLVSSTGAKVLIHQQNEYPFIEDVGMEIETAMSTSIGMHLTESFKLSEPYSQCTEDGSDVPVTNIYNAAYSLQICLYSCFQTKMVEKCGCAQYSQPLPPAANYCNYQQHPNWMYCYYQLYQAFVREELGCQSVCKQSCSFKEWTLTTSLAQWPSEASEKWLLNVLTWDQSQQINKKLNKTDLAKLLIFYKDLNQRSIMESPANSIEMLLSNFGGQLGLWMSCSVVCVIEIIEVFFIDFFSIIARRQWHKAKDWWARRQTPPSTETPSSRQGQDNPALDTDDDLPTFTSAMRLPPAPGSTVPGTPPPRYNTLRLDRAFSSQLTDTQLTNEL", "assay": "Rat potency from renal electrolyte excretion during i.v. infusion", "assay_type": "in vivo", "details": "read-out: potency for rat ENaC (EC50, inhibiting 50% of the potassium excretion), normal rats, free concentrations, estimated", "method": "The potency of AZD5634 was also assessed in vivo in rats. Female Wistar rats were anesthetized by means of spontaneously breathing isoflurane (induction concentration of 5% followed by 2%). A catheter was positioned in the carotid artery for blood sampling and mean arterial blood pressure and heart rate were measured. […] The urinary bladder was catheterized for urine collection. The rats were left to stabilize for at least 30 min after surgery during constant basal infusions before any test compound or vehicle infusion was initiated. Urine was collected over 20-min periods; two at baseline (i.e., preexposure), followed by three 30 min exposures of increasing doses of test compound or vehicle, where urine was collected over the last 20 min for each dose. Additional urine was collected during the washout period (0–20, 20–40, and 40–60 min after cessation of the infusion protocol). Blood samples were collected 5 min before the end of each urine collection period for electrolyte evaluation (iSTAT analyzer, Abbott Laboratories Inc) and plasma concentration of drug (LC-MSMS). Urine production, electrolytes (ABL700, Radiometer Medical ApS, Brønshøj, Denmark, for urine), as well as concentration of test compound (LC-MSMS) were evaluated.\nRat electrolyte data were analyzed by means of repeated-measures ANCOVA (SAS v.9)."}
{"substance": "AZD5634", "values": [{"measurement": "EC50", "value": 8.6, "unit": "nM"}]}
